Publication PMC6825221, “In silico re-engineering of a neurotransmitter to activate KCNQ potassium channels in an isoform-specific manner” (Communications Biology, 2019)
“And” between values parts separate entries of the source, which are not always exact repeats. Identical values can stand only once. “Also recorded” adds a separate entry of the source. Like-named read-outs stand apart in the source and are kept apart here.

Tests used:
KCNQ2/3 [1] = molecular target: T1, KCNQ2/3 (Homo sapiens, UniProt O43525+O43526); assay: TEVC of KCNQ2/3 channels expressed in Xenopus oocytes; format: cell-based; conditions: TEVC in oocytes; for EC50: shift in voltage dependence of activation (ΔV0.5act)
T1 sequence (O43525 whole entry): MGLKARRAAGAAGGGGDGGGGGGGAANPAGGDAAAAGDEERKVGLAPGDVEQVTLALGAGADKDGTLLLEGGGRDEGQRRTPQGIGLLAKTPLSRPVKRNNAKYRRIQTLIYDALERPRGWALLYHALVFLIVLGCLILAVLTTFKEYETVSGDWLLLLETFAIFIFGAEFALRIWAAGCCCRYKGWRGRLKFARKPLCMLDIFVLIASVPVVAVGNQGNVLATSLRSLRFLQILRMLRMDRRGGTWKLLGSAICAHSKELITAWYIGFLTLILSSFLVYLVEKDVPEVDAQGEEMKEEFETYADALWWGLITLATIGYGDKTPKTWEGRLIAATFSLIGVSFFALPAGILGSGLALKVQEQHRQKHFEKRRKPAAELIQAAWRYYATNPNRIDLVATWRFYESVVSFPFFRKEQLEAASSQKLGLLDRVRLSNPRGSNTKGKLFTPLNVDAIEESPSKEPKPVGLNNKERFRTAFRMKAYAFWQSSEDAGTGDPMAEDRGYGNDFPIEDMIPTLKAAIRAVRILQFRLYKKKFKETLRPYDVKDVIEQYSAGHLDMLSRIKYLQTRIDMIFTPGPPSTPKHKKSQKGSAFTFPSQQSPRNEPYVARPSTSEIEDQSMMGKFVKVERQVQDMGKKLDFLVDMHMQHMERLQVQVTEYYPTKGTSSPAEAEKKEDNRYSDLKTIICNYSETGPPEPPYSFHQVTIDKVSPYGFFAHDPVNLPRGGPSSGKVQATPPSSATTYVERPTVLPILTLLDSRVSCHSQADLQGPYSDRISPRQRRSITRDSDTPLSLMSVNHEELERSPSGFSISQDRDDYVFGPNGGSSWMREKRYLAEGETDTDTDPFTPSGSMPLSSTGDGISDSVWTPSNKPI
T1 sequence (O43526 whole entry): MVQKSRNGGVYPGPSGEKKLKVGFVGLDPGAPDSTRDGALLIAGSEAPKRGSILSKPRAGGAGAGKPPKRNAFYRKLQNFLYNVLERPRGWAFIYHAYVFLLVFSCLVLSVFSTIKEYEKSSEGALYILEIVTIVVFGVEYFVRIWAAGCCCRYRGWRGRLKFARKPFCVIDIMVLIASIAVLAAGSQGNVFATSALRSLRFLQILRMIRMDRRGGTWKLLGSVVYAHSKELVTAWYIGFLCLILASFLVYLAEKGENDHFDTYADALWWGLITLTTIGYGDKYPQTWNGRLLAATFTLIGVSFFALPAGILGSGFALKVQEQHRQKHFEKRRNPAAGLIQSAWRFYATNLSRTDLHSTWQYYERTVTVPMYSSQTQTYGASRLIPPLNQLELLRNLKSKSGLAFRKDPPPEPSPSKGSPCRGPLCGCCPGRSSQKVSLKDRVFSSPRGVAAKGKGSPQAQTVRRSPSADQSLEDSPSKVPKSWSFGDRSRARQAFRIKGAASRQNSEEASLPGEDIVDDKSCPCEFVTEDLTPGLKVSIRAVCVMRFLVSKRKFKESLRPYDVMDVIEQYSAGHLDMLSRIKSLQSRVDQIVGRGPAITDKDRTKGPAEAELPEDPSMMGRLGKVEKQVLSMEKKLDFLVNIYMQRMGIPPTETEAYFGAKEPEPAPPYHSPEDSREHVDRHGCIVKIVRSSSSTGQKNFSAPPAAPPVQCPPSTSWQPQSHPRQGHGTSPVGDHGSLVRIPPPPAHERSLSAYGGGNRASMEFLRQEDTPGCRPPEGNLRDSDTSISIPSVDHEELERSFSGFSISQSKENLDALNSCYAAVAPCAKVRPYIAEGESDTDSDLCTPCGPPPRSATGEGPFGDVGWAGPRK
Excerpt: (§1) We generated cRNA transcripts encoding human KCNQ1, KCNQ2, KCNQ3, KCNQ4, KCNQ5 or GLRA1 (NM_001146040) (GenScript, Piscataway, NJ, USA) by in vitro transcription using the T7 polymerase mMessage mMachine kit (Thermo Fisher Scientific), after vector linearization, from cDNA sub-cloned into plasmids incorporating Xenopus laevis β-globin 5′ and 3′ UTRs flanking the coding region to enhance translation and cRNA stability. We quantified cRNA by spectrophotometry. […] We injected defolliculated stage V and VI Xenopus laevis oocytes (Ecocyte Bioscience, Austin, TX and Xenoocyte, Dexter, MI) with KCNQ channel α subunit (5-20 ng) or GLRA1 (20 ng) cRNAs. We incubated the oocytes at 16 °C in Barth’s saline solution (Ecocyte Bioscience) containing penicillin and streptomycin, with daily washing, for 2–5 days prior to two-electrode voltage-clamp (TEVC) recording.
(§2) For recording, oocytes were placed in a small-volume oocyte bath (Warner) and viewed them with a dissection microscope. Chemicals were sourced from Sigma, Matrix Scientific and Santa Cruz. […] All stock solutions were diluted in bath solution on the day of experiments. KCNQ2/3 channel activation was screened for using either 30 µM or 100 µM concentrations of each of the six compounds, then dose responses were conducted as appropriate. Bath solution was (in mM): 96 NaCl, 4 KCl, 1 MgCl2, 1 CaCl2, 10 HEPES (pH 7.6). Compounds were introduced into the oocyte recording bath by gravity perfusion at a constant flow of 1 ml per minute for 3 min prior to recording. Pipettes were of 1–2 MΩ resistance when filled with 3 M KCl. Currents were recorded in response to voltage pulses between −120 or −80 mV and + 40 mV at 20 mV intervals from a holding potential of −80 mV, to yield current-voltage relationships, current magnitude, and for quantifying activation rate. We analyzed data using Clampfit (Molecular Devices) and Graphpad Prism software (GraphPad, San Diego, CA, USA); values are stated as mean ± SEM. We plotted raw or normalized tail currents versus prepulse voltage and fitted with a single Boltzmann function:1 g=(A1−A2)/1+exp(V12−V)∕VS+A2, where g is the normalized tail conductance, A1 is the initial value at −∞, A2 is the final value at +∞, V1/2 is the half-maximal voltage of activation and Vs the slope factor. Activation, deactivation, wash-in and washout kinetics were fitted with single exponential functions to yield a τ value.

KCNQ3*-R242A = molecular target: T2, KCNQ3*-R242A (Homo sapiens, UniProt O43525, A315T/R242A); assay: TEVC of homomeric KCNQ3*-R242A; format: cell-based; conditions: 100 µM
T2 sequence (O43525 1-872 R242A/A315T): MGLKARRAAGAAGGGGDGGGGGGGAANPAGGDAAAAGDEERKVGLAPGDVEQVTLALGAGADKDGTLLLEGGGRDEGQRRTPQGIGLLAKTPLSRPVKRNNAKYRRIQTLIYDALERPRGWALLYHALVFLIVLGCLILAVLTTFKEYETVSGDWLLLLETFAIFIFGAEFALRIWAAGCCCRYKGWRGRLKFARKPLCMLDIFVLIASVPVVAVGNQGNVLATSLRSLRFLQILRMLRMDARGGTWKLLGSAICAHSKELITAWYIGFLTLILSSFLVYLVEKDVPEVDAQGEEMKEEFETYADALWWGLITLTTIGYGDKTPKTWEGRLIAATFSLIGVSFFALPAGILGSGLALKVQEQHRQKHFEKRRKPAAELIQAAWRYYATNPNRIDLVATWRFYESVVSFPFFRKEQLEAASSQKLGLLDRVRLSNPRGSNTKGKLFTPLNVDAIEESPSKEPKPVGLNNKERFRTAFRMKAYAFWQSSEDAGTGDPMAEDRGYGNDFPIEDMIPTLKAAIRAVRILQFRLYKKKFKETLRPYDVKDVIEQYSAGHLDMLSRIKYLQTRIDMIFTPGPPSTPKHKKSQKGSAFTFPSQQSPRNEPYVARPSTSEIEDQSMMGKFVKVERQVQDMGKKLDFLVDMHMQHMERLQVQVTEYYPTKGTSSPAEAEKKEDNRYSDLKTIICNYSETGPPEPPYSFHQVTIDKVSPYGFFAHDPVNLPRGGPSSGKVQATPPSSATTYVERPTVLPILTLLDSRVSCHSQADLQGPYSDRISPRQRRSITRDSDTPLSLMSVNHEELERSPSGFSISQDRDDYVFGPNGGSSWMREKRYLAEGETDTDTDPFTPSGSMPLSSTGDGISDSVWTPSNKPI
Excerpt: We generated cRNA transcripts encoding human KCNQ1, KCNQ2, KCNQ3, KCNQ4, KCNQ5 or GLRA1 (NM_001146040) (GenScript, Piscataway, NJ, USA) by in vitro transcription using the T7 polymerase mMessage mMachine kit (Thermo Fisher Scientific), after vector linearization, from cDNA sub-cloned into plasmids incorporating Xenopus laevis β-globin 5′ and 3′ UTRs flanking the coding region to enhance translation and cRNA stability. We quantified cRNA by spectrophotometry. We generated mutant KCNQ2 and KCNQ3 cDNAs by site-directed mutagenesis using a QuikChange kit (Stratagene, San Diego, CA) and prepared the corresponding cRNAs as above. […]
(§3) We performed TEVC at room temperature using an OC-725C amplifier (Warner Instruments, Hamden, CT) and pClamp10 software (Molecular Devices, Sunnyvale, CA) 2–5 days after cRNA injection as described in the section above. […] Currents were recorded in response to voltage pulses between −120 or −80 mV and + 40 mV at 20 mV intervals from a holding potential of −80 mV, to yield current-voltage relationships, current magnitude, and for quantifying activation rate. We analyzed data using Clampfit (Molecular Devices) and Graphpad Prism software (GraphPad, San Diego, CA, USA); values are stated as mean ± SEM. […]

KCNQ1 [2] = molecular target: T3, KCNQ1 (Homo sapiens, UniProt P51787); conditions: cited from earlier work
KCNQ4 = KCNQ4 (Homo sapiens, UniProt P56696); assay: TEVC of homomeric KCNQ4 expressed in Xenopus oocytes; format: cell-based; conditions: for effects on KCNQ4: dose response
Excerpt: (§4) We generated cRNA transcripts encoding human KCNQ1, KCNQ2, KCNQ3, KCNQ4, KCNQ5 or GLRA1 (NM_001146040) (GenScript, Piscataway, NJ, USA) by in vitro transcription using the T7 polymerase mMessage mMachine kit (Thermo Fisher Scientific), after vector linearization, from cDNA sub-cloned into plasmids incorporating Xenopus laevis β-globin 5′ and 3′ UTRs flanking the coding region to enhance translation and cRNA stability. We quantified cRNA by spectrophotometry. We generated mutant KCNQ2 and KCNQ3 cDNAs by site-directed mutagenesis using a QuikChange kit (Stratagene, San Diego, CA) and prepared the corresponding cRNAs as above. We injected defolliculated stage V and VI Xenopus laevis oocytes (Ecocyte Bioscience, Austin, TX and Xenoocyte, Dexter, MI) with KCNQ channel α subunit (5-20 ng) or GLRA1 (20 ng) cRNAs. We incubated the oocytes at 16 °C in Barth’s saline solution (Ecocyte Bioscience) containing penicillin and streptomycin, with daily washing, for 2–5 days prior to two-electrode voltage-clamp (TEVC) recording.
as §2, with “We performed TEVC at room temperature using an OC-725C amplifier (Warner Instruments, Hamden, CT) and pClamp10 software (Molecular Devices, Sunnyvale, CA) 2–5 days after cRNA injection as described in the section above. For” for “For”

KCNQ3* [3] = molecular target: T4, KCNQ3* (Homo sapiens, UniProt O43525, A315T); assay: [3H]GABA binding and competition, oocytes expressing KCNQ3*
Experimental: (§5) Oocytes were then washed four times in 16 °C ND96, transferred to individual wells in a 96 well plate and lysed in 0.2% SDS in ND96. Each oocyte lysate was transferred to a scintillation vial containing 5 ml Cytoscint scintillation cocktail fluid (MP Biomedicals, Santa Ana, CA). Vials were capped, shaken, and then allowed to sit at room temperature for at least 30 min before scintillation counting in a Beckmann Coulter LS6500 liquid scintillation counter.

KCNQ3* [4] = molecular target: T4, KCNQ3*; design: method as in PMID 29748663; conditions: cited from earlier work
KCNQ5 [5] = molecular target: T5, KCNQ5 (Homo sapiens, UniProt Q9NR82); design: method as in PMID 29748663; conditions: cited from earlier work
KCNQ1 [6] = molecular target: T3, KCNQ1; assay: TEVC of homomeric KCNQ1 expressed in Xenopus oocytes; format: cell-based
Excerpt: as §4
as §3, with “above. For recording, oocytes were placed in a small-volume oocyte bath (Warner) and viewed them with a dissection microscope. Chemicals were sourced from Sigma, Matrix Scientific and Santa Cruz. […] All stock solutions were diluted in bath solution on the day of experiments. KCNQ2/3 channel activation was screened for using either 30 µM or 100 µM concentrations of each of the six compounds, then dose responses were conducted as appropriate.” for “above.”

KCNQ2 [7] = molecular target: T6, KCNQ2 (Homo sapiens, UniProt O43526); assay: TEVC of homomeric KCNQ2 expressed in Xenopus oocytes; format: cell-based
Excerpt: as §1, §2

KCNQ3* [8] = molecular target: T4, KCNQ3*; assay: TEVC of homomeric KCNQ3* (A315T KCNQ3 mutant) expressed in Xenopus oocytes; format: cell-based; conditions: dose response
Excerpt: We next validated the in silico predictions using two-electrode voltage clamp of homomeric neuronal KCNQ2-5 channel isoforms expressed in Xenopus laevis oocytes. […] As in previous studies[8],[10], we used the A315T KCNQ3 mutant (KCNQ3*) that ensures large enough currents to accurately quantify voltage dependence and pharmacology of homomeric KCNQ3[16].
as §4
as §2, with “We performed TEVC at room temperature using an OC-725C amplifier (Warner Instruments, Hamden, CT) and pClamp10 software (Molecular Devices, Sunnyvale, CA) 2–5 days after cRNA injection as described in the section above. For” for “For”, “We plotted raw or normalized tail currents versus prepulse voltage and fitted with a single Boltzmann function:1 g=(A1−A2)/1+exp(V12−V)∕VS+A2, where g is the normalized tail conductance, A1 is the initial value at −∞, A2 is the final value at +∞, V1/2 is the half-maximal voltage of activation and Vs the slope factor. Activation, deactivation, wash-in and washout kinetics were fitted with single exponential functions to yield a τ value.” left out

KCNQ5 [9] = molecular target: T5, KCNQ5; assay: TEVC of homomeric KCNQ5 expressed in Xenopus oocytes; format: cell-based; conditions: dose response
Excerpt: as §4
as §3, with “above. For recording, oocytes were placed in a small-volume oocyte bath (Warner) and viewed them with a dissection microscope. Chemicals were sourced from Sigma, Matrix Scientific and Santa Cruz. […] All stock solutions were diluted in bath solution on the day of experiments. KCNQ2/3 channel activation was screened for using either 30 µM or 100 µM concentrations of each of the six compounds, then dose responses were conducted as appropriate.” for “above.”

GLRA1 = molecular target: T7, GLRA1 (Homo sapiens, UniProt P23415); assay: TEVC of glycine receptor GLRA1 expressed in Xenopus oocytes; format: cell-based; conditions: 1 mM, compound alone
T7 sequence (P23415 29-457): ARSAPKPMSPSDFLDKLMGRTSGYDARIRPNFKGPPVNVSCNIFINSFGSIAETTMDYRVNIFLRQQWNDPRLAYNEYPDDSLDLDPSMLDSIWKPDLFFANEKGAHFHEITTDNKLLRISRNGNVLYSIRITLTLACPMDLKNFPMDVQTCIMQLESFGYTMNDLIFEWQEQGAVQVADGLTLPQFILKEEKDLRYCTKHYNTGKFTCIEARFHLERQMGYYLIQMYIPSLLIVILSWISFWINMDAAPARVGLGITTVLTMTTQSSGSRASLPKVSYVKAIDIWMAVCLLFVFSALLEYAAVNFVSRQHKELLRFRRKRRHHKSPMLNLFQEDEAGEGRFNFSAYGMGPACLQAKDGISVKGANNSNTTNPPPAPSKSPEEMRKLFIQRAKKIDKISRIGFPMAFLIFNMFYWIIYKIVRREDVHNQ
Excerpt: as §4
as §2, with “We performed TEVC at room temperature using an OC-725C amplifier (Warner Instruments, Hamden, CT) and pClamp10 software (Molecular Devices, Sunnyvale, CA) 2–5 days after cRNA injection as described in the section above. For” for “For”

KCNQ2/3 [10] = molecular target: T1, KCNQ2/3
Experimental: as §5

KCNQ2 [11] = molecular target: T6, KCNQ2; design: method as in PMID 30021858; conditions: cited from earlier work

## CCOC(=O)Nc1ccc(NCc2ccc(F)cc2)cc1N [retigabine, reference compound]
KCNQ2/3 [1]; EC50, KCNQ2/3 activation
  EC50: 6900 nM and 6870 nM
KCNQ3*-R242A
  effect on nonfunctional KCNQ3*-R242A: awakened neither by 3FMSG nor retigabine
KCNQ1 [2]
  activation of KCNQ1: does not activate KCNQ1

## NCCCC(=O)O [GABA, γ-aminobutyric acid, reference compound]
KCNQ4
  effects on KCNQ4: unable to open
KCNQ3* [3]
  [3H]GABA binding to KCNQ3*: bound
KCNQ3* [4]
  activation of KCNQ3: activate only KCNQ3 and KCNQ5
KCNQ5 [5]
  activation of KCNQ5: activate only KCNQ3 and KCNQ5

## NC(C(=O)O)c1ccc(F)cc1 (stereo not drawn) [4FPG, 4-(fluorophenyl)glycine]
KCNQ2/3 [1]; read-out: EC50, KCNQ2/3 activation
  EC50: 61 ± 42 nM
KCNQ1 [6]; 30 µM
  KCNQ1 activation and deactivation rates: slowed KCNQ1 deactivation but did not speed its activation
KCNQ1 [6]; ΔV0.5act, read-out: EC50, KCNQ1 activation
  EC50: 90 ± 20 nM
KCNQ2 [7]; 4FPG 30 µM, 2FPG 100 µM
  KCNQ2 activation and deactivation rates: speeded KCNQ2 and KCNQ4 activation and slowed their deactivation
KCNQ2 [7]; wild-type KCNQ2, ΔV0.5act, read-out: EC50, KCNQ2 activation
  EC50: 69 ± 31 nM
KCNQ3* [8]
  effects on KCNQ3*: no effects
KCNQ4; 30 µM
  KCNQ4 activation and deactivation rates: speeded KCNQ2 and KCNQ4 activation and slowed their deactivation
KCNQ4; ΔV0.5act, read-out: EC50, KCNQ4 activation
  EC50: 49 ± 12 nM
KCNQ5 [9]
  effects on KCNQ5: no effects

## NCC(=O)O [glycine, reference compound]
KCNQ2/3 [1]
  activation of KCNQ2/3: nor does it activate KCNQ2/3; also recorded: no effect
KCNQ2 [7]; dose response
  effects on KCNQ2: unable to open
KCNQ3* [8]
  effects on KCNQ3*: no effects
KCNQ4
  effects on KCNQ4: unable to open
KCNQ5 [9]
  effects on KCNQ5: no effects
GLRA1
  activation of GLRA1: robust activation
KCNQ2/3 [10]; CPM over 30 min
  binding of tritiated ligand to wild-type KCNQ2/3: did not
KCNQ2/3 [10]; cold glycine 100 µM
  inhibition of GABA binding to wild-type KCNQ2/3: did not inhibit GABA binding

## NCC1(CC(=O)O)CCCCC1 [gabapentin]
KCNQ2 [11]
  activation of KCNQ2: not KCNQ2
KCNQ3* [4]
  activation of KCNQ3: activate only KCNQ3 and KCNQ5
KCNQ5 [5]
  activation of KCNQ5: activate only KCNQ3 and KCNQ5
